Experimental data from patent US9918975B2, “Method for improving dissolution of anticoagulant agent” (Daiichi Sankyo Company, Limited, priority 2010, dated 2018).

Assay: Solubility of compound I in aqueous solutions
Assay type: physicochemical

Question: Which results are given for `CN1CCc2nc(C(=O)N[C@@H]3C[C@@H](C(=O)N(C)C)CC[C@@H]3NC(=O)C(=O)Nc3ccc(Cl)cn3)sc2C1` [compound I, N^1-(5-chloropyridin-2-yl)-N^2-((1S,2R,4S)-4-[(dimethylamino)carbonyl]-2-{[(5-methyl-4,5,6,7-tetrahydrothiazolo[5,4-c]pyridin-2-yl)carbonyl]amino}cyclohexyl)ethanediamide]?
Answer: solubility (neutral aqueous solutions (e.g., a neutral buffer)): reduced solubility; solubility (strongly acidic aqueous solutions): favorable solubility
